Among the data in patent US20060128724A1, “Pyrazole-substituted aminoheteroaryl compounds as protein kinase inhibitors” (AGOURON PHARMACEUTICALS, INC., priority 2004, published 2006) are Ki values, retold here.

Where two headings read alike, the source gives them in different places.

The test deals with T1, c-MET (HGFR) (Homo sapiens, UniProt P08581).
T1 construct: purchased Upstate 14-526
In words: HGFR Continuous-Coupled Spectrophotometric Assay. It is filed as biochemical. As to conditions: Met-2 substrate peptide, 50 nM HGFR, 37° C. The source says: The following in vitro assay may be used to determine the level of activity and effect of the different compounds of the present invention on one or more of the PKs. Similar assays can be designed along the same lines for any PK using techniques well known in the art.
The general procedure is as follows: compounds and kinase assay reagents are introduced into test wells. The assay is initiated by addition of the kinase enzyme. Enzyme inhibitors reduce the measured activity of the enzyme.
In the continuous-coupled spectrophotometric assay the time-dependent production of ADP by the kinase is determined by analysis of the rate of consumption of NADH by measurement of the decrease in absorbance at 340 nm. As the PK produces ADP it is re-converted to ATP by reaction with phosphoenol pyruvate and pyruvate kinase. Pyruvate is also produced in this reaction. Pyruvate is subsequently converted to lactate by reaction with lactate dehydrogenase, which simultaneously converts NADH to NAD.
HGFR Continuous-Coupled Spectrophotometric Assay
This assay analyzes the tyrosine kinase activity of HGFR on the Met-2 substrate peptide, a peptide derived from the activation loop of the HGFR.
• 1. […] Dissolve up in 200 mM HEPES, pH 7.5 at 10 mM stock. • 3. 1 M PEP (phospho-enol-pyruvate) in 200 mM HEPES, pH 7.5 • 4. 100 mM NADH (B-Nicotinamide Adenine Dinucleotide, Reduced Form) in 200 mM HEPES, pH 7.5 • 5. 4 M MgCl2 (Magnesium Chloride) in ddH2O • 6. 1 M DTT (Dithiothreitol) in 200 mM HEPES, pH 7.5 • 7. 15 Units/mL LDH (Lactic Dehydrogenase) • 8. 15 Units/mL PK (Pyruvate Kinase) • 9. 5M NaCl dissolved in ddH2O • 10. Tween-20 (Protein Grade) 10% Solution • 11. 1 M HEPES buffer: (N-[2-Hydroxethyl]piperazine-N-[2-ethanesulfonic acid]) Sodium Salt. Dissolve in ddH2O, adjust pH to 7.5, bring volume to 1 L. Filter at 0.1 μm. • 12. […] 100% DMSO (SIGMA) • 14. […] Beckman DU-650 w/micro cell holders • 18. Beckman 4-position micro cell cuvette Procedure:
Prep Dilution Buffer (DB) for Enzyme (For 30 mL prep) • 1. DB final concentration is 2 mM DTT, 25 mM NaCl2, 5 mM MgCl2, 0.01% Tween-20, and 50 mM HEPES buffer, pH 7.5. • 2. Make up 50 mM HEPES by adding 1.5 mL 1 M HEPES into 28.1 mL of ddH2O. Add rest of the reagents. Into 50 mL conical vial, add 60 μL of 1M DTT, 150 μL 5M NaCl2, 150 μL 1M MgCl2, and 30 μL of 10% Tween-20 to give total volume of 30 mL. • 3. […] Aliquot out DB at 1 mL/tube and label tubes as “DB HGFR” • 5. Note: This can be prepared and stored ahead of time. • 6. Freeze un-used aliquots in microcentrifuge tubes at −20° C. freezer. […] For compound dilution plate, add 4 μL of 10 mM stock into column 1 of plate, and bring volume to 100 μL with 100% DMSO. • 2. Set up the Precision 2000 dilution method. A final concentration of 200 μM compound in 50% DMSO, 100 mM HEPES (1:2 serial dilution). Prep Coupled Enzymatic Buffer:
1. Final concentration in assay:
• 2. For a 10 mL reaction buffer add 10 μL of 1M PEP, 33 μL of 100 mM NADH, 50 μL of 4M MgCl2, 20 μL of 1M DTT, 6 μL of 500 mM ATP, and 500 μL of 10 mM Met-2 peptide into 100 mM HEPES buffer pH 7.5 and vortex/mix. • 3. Add coupling enzymes, LDH and PK, into reaction mix. Mix by gentle inversion. Running Samples
1. Spectrophotometer settings:
• 2. Add 85 μL of CE reaction mix into each well of assay plate. • 3. Add 5 μL of diluted compound into a well of the assay plate. • 4. Add 5 μL of 50% DMSO for negative control into last column of assay plate. • 5. Mix with multi-channel pipettor or orbital shaker. • 6. Pre-incubate for 10 minutes at 37° C. • 7. Add 10 μL of 500 nM HGFR to each well of assay plate; the final HGFR concentration is 50 nM in a total final volume of 100 μL. • 8. Measure activity for 10 minutes at λ=340 nm and 37° C.

T1 sequence (P08581 974-1390 limits assumed): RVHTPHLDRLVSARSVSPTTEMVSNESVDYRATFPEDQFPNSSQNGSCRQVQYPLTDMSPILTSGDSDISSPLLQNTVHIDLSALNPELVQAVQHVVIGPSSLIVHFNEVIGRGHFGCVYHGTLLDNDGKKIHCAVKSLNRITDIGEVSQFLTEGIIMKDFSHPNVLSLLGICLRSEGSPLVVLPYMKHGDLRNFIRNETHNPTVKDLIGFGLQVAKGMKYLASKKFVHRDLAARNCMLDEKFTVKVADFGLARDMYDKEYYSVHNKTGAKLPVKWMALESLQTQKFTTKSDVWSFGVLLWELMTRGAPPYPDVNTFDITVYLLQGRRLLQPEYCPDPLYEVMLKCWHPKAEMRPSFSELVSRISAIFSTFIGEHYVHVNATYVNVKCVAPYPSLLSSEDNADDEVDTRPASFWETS

With `CC(Oc1cc(-c2cnn(C3CN(CC#N)C3)c2)cnc1N)c1c(Cl)ccc(F)c1Cl` (stereo not drawn) [Example 8, [3-(4-{6-amino-5-[1-(2,6-dichloro-3-fluorophenyl)ethoxy]pyridin-3-yl}-1H-pyrazol-1-yl)azetidin-1-yl]acetonitrile], the Ki (read-out: c-Met Ki) was 25 nM.
Consider `CC(Oc1cc(-c2cnn(C3CCNCC3)c2)cnc1N)c1c(Cl)ccc(O)c1Cl` (stereo not drawn) [Example 136, 3-{1-[2-Amino-5-(1-piperidin-4-yl-1H-pyrazol-4-yl)-pyridin-3-yloxy]-ethyl}-2,4-dichloro-phenol], for which, under “read-out: Met Ki”, the Ki is 42 nM.
Same read-out and setting: the same measure for `CC(Oc1cc(-c2cnn(CC3CCOCC3)c2)cnc1N)c1c(Cl)ccc(F)c1Cl` (stereo not drawn) [Example 132, 3-[1-(2,6-Dichloro-3-fluoro-phenyl)-ethoxy]-5-[1-(tetraydro-pyran-4-ylmethyl)-1H-pyrazol-4-yl]-pyridin-2-amine]: 42 nM; for `CC(Oc1cc(-c2cnn(C3CCNCC3)c2)cnc1N)c1c(Cl)c(O)cc(F)c1Cl` (stereo not drawn) [Example 147, 3-{1-[2-Amino-5-(1-piperidin-4-yl-1H-pyrazol-4-yl)-pyridin-3-yloxy]ethyl}-2,4-dichloro-5-fluoro-phenol]: 30 nM.
On to `CCN(CC)CC(=O)N1CCC(n2cc(-c3cnc(N)c(OC(C)c4c(Cl)ccc(F)c4Cl)c3)cn2)CC1` (stereo not drawn) [Example 126, 1-[4-(4-{6-Ainino-5-[1-(2,6-dichloro-3-fluoro-phenyl)-ethoxy]-pyridin-3-yl}-pyrazol-1-yl)-piperidin-1-yl]-2-diethylamino-ethanone], for which the Ki (read-out: Met Ki) came out at 15 nM.
Still for that read-out and setting: the value for `CC(Oc1cc(Br)cnc1N)c1c(Cl)c(F)cc(OCCN(C)C)c1Cl` (stereo not drawn) [Example 153, 5-Bromo-3-{1-[2,6-dichloro-3-(2-dimethylamino-ethoxy)-5-fluoro-phenyl]-ethoxy}-pyridin-2-ylamine] was 805 nM.
As for `CC(Oc1cc(-c2cnn(C(C)(C)C(=O)NCCCO)c2)cnc1N)c1c(Cl)ccc(F)c1Cl` (stereo not drawn) [Example 32, 2-(4-{6-Amino-5-[1-(2,6-dichloro-3-fluoro-phenyl)-ethoxy]-pyridin-3-yl}-pyrazol-1-yl)-N-(3-hydroxy-propyl)-isobutyramide], the Ki (read-out: c-Met Ki) stood at 70 nM.
For `CC(Oc1cc(-c2cnn(C3CCN(C(=O)CN4CCCC4)CC3)c2)cnc1N)c1c(Cl)ccc(F)c1Cl` (stereo not drawn) [Example 125, 1-[4-(4-{6-Amino-5-[1-(2,6-dichloro-3-fluoro-phenyl)-ethoxy]-pyridin-3-yl}-pyrazoI-1-yl)-piperidin-1-yl]-2-pyrrolidin-1-yl-ethanone], the Ki (read-out: Met Ki) came to 14 nM.
For `CC(Oc1cc(-c2cnn([C@H](C)C(=O)NCCCN(C)C)c2)cnc1N)c1c(Cl)ccc(F)c1Cl` (stereo in doubt) [Example 74, 2-(4-{6-Amino-5-[1-(2,6-dichloro-3-fluoro-phenyl)-ethoxy]-pyridin-3-yl}-pyrazol-1-yl)-N-(3-dimethylamino-propyl)-propionamide], the Ki (read-out: c-Met Ki) amounted to 40 nM.
Regarding `COCCOc1ccc(Cl)c(C(C)Oc2cc(-c3cnn(C4CCNCC4)c3)cnc2N)c1Cl` (stereo not drawn) [Example 141, 3-{1-(2,6-Dichloro-3-(2-methoxy-ethoxy)-phenyl]-ethoxy}-5-(1-piperidin-4-yl-1H-pyrazol-4-yl)-pyridin-2-ylamine], the Ki (read-out: Met Ki) stood at 44 nM.
On to `CC(Oc1cc(-c2cnn(C3CCN(C(C)C)CC3)c2)cnc1N)c1c(Cl)ccc(F)c1Cl` (stereo not drawn) [Example 38, 3-[1-(2,6-Dichloro-3-fluoro-phenyl)-ethoxy]-5-[1-(1-isopropyl-piperidin-4-yl)-1H-pyrazol-4-yl]-pyridin-2-ylamine], for which the Ki (read-out: c-Met Ki) amounted to 10 nM.
On the same count and under the same terms, the value for `C[C@@H](Oc1cc(-c2cnn(C3CCN(C(=O)CO)CC3)c2)cnc1N)c1c(Cl)ccc(F)c1Cl` [Example 47, 1-[4-(4-{6-Amino-5-[(R)-1-(2,6-dichloro-3-fluoro-phenyl)-ethoxy]-pyridin-3-yl}-pyrazol-1-yl)-piperidin-1-yl]-2-hydroxy-ethanone] was 4 nM.
Take `CC(Oc1cc(-c2cnn(CC3(C)COC3)c2)cnc1N)c1c(Cl)ccc(F)c1Cl` (stereo not drawn) [Example 131, 3-[1-(2,6-Dichloro-3-fluoro-phenyl)-ethoxy]-5-[1-(3-methyl-oxetan-3-ylmethyl)-1H-pyrazol-4-yl]-pyridin-2-ylamine]: where the note is “read-out: Met Ki”, the Ki was found to be 50 nM.
As for `CCOC(=O)N1CCC(n2cc(-c3cnc(N)c(OC(C)c4c(Cl)ccc(F)c4Cl)c3)cn2)CC1` (stereo not drawn) [Example 101, ethyl 4-(4-{6-amino-5-[1-(2,6-dichloro-3-fluorophenyl)ethoxy]pyridin-3-yl}-1H-pyrazol-1-yl)piperidine-1-carboxylate], the Ki (read-out: c-Met Ki) is 19 nM.
As for `CCOC(=O)c1cnn(-c2cnc(N)c(OC(C)c3c(Cl)ccc(F)c3Cl)c2)c1` (stereo not drawn) [Example 80, 1-{6-Amino-5-[1-(2,6-dichloro-3-fluoro-phenyl)-ethoxy]-pyridin-3-yl}-1H-pyrazole-4-carboxylic acid ethyl ester], for the setting “read-out: c-Met Ki”, the Ki is 2050 nM.
Regarding `Cc1nn(C(C)(C)C(=O)NCCN2CCCC2)cc1-c1cnc(N)c(OC(C)c2c(Cl)ccc(F)c2Cl)c1` (stereo not drawn) [Example 37, 2-(4-{6-Amino-5-[1-(2,6-dichloro-3-fluoro-phenyl)-ethoxy]-pyridin-3-yl}3-methyl-pyrazol-1-yl)-N-(2-pyrrolidin-1-yl-ethyl)-isobutyramide], the Ki (read-out: c-Met Ki) was found to be 70 nM.
For `CC(Oc1cc(-c2cnn(C[C@H]3CCC(=O)N3)c2)cnc1N)c1c(Cl)ccc(F)c1Cl` (stereo partly drawn) [Example 134, 5-(4-{6-Amino-5-[1-(2,6-dichloro-3-fluoro-phenyl)-ethoxy]-pyridin-3-yl}-pyrazol-1-ylmethyl)-pyrrolidin-2R-one], the Ki (read-out: Met Ki) was 24 nM.
Take `CC(Oc1cc(-c2cnn(C3CCN(CC4CC4)CC3)c2)cnc1N)c1c(Cl)ccc(F)c1Cl` (stereo not drawn) [Example 45, 5-[1-(1-Cyclopropylmethyl-piperidin-4-yl)-1H-pyrazol-4-yl]-3-[1-(2,6-dichloro-3-fluoro-phenyl)-ethoxy]-pyridin-2-ylamine]: for the setting “read-out: c-Met Ki”, the Ki turned out to be 10 nM.
As for `CC(Oc1cc(-c2cnn(CC3COCO3)c2)cnc1N)c1c(Cl)ccc(F)c1Cl` (stereo not drawn) [Example 84, 3-[1-(2,6-Dichloro-3-fluoro-phenyl)-ethoxy]-5-(1-[1,3]dioxolan-4-ylmethyl-1H-pyrazol-4-yl)-pyridin-2-ylamine], under “read-out: c-Met Ki”, the inhibition constant Ki stood at 61 nM.
As for `CNC(=O)[C@H]1C[C@@H]1Cn1cc(-c2cnc(N)c(OC(C)c3c(Cl)ccc(F)c3Cl)c2)cn1` (stereo in doubt) [Example 10, 2-[(4-{6-amino-5-[1-(2,6-dichloro-3-fluorophenyl)ethoxy]pyridin-3-yl}-1H-pyrazol-1-yl)methyl]-N-methylcyclopropanecarboxamide], the Ki (read-out: c-Met Ki) stood at 71 nM.
`CC(Oc1cc(-c2cnn(C(C)(C)C(=O)N3CCCC3)c2)cnc1N)c1c(Cl)ccc(F)c1Cl` (stereo not drawn) [Example 57, 2-(4-{6-Amino-5-[1-(2,6-dichloro-3-fluoro-phenyl)-ethoxy]-pyridin-3-yl}-pyrazol-1-yl)-2-methyl-1-pyrrolidin-1-yl-propan-1-one]: the Ki (read-out: c-Met Ki) came to 425 nM.

As usually defined, the Ki is the dissociation constant of the complex between target and ligand, obtained from inhibition or displacement.
